Data: patent US20260317340A1, “COMPOUNDS, COMPOSITIONS, AND METHODS OF TREATING DISORDERS” (Chengdu Anticancer Bioscience, Ltd., priority 2023, published 2026)
Read-outs that look alike come from different tables or passages of the source.

Key:
[1] = test system: RPE-Neo or RPE-MYC or RPE-MYC expressing an EGFP-Histone 2B fusion protein; assay: Phenotypic screening assay: arrest in mitosis, change in DNA content (polyploidy), cell death; assay type: cell-based; settings: 20 nM to 20 μM, 24, 48 or 72 hours
Method in brief: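 Compound exposure from 20 nM to 20 μM in RPE lines (Neo, MYC, or MYC with EGFP-histone H2B), seeded 18-24 h earlier; imaging at 24, 48 or 72 h read mitotic arrest or altered DNA content, with MTT for proliferation. Results reported as A–D range categories.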

RPE-Neo or RPE-MYC cells = assay: MTT assay of cellular proliferation (proliferative arrest); assay type: cell-based; settings: read-out: Min. Effective conc. for Proliferative arrest (>50%)
[2] = read-out: Min. Effective conc. for Along with Cell Death
[3] = ≥5%, read-out: Min. Effective conc. for Mitotic Arrest (≥5%)
[4] = ≥5%, read-out: Min. Effective conc. for Polyploidy (≥5%)

SMILES | minimal effective concentration [1, 2] [µM] | minimal effective concentration [1, 3] [µM] | minimal effective concentration [1, 4] [µM] | minimal effective concentration (RPE-Neo or RPE-MYC cells) [µM]
COc1ccc(CN2C(=O)CC(c3ncc(C)o3)=Cc3ccc(-c4cnn(CC#N)c4)cc32)cc1 [Compound 68, 2-(4-(1-(4-methoxybenzyl)-4-(5-methyloxazol-2-yl)-2-oxo-2,3-dihydro-1H-benzo[b]azepin-8-yl)-1H-pyrazol-1-yl)acetonitrile] | 0.001 to 1 | 0.001 to 1 | 0.001 to 1 | 0.001 to 1
COc1ccc(CN2C(=O)CC(c3ncc(C)o3)=Cc3ccc(-c4cnn(CC(=O)O)c4)cc32)cc1 [Compound 69, 2-(4-(1-(4-Methoxybenzyl)-4-(5-methyloxazol-2-yl)-2-oxo-2,3-dihydro-1H-benzo[b]azepin-8-yl)-1H-pyrazol-1-yl)acetic acid] | 1 to 10 | 1 to 10 | 1 to 10 | 1 to 10
COc1ccc(CN2C(=O)CC(c3ncc(C)o3)=Cc3ccc(-c4cnn(C5CNC5)c4)cc32)cc1 [Compound 70, 8-(1-(Azetidin-3-yl)-1H-pyrazol-4-yl)-1-(4-methoxybenzyl)-4-(5-methyloxazol-2-yl)-1,3-dihydro-2H-benzo[b]azepin-2-one] | 0.001 to 1 | 0.001 to 1 | 0.001 to 1 | 0.001 to 1
CCOC(=O)Cn1cc(-c2ccc3c(c2)N(Cc2ccc(OC)cc2)C(=O)CC(c2ncc(C)o2)=C3)cn1 [Compound 71, Ethyl 2-(4-(1-(4-methoxybenzyl)-4-(5-methyloxazol-2-yl)-2-oxo-2,3-dihydro-1H-benzo[b]azepin-8-yl)-1H-pyrazol-1-yl)acetate] | 0.001 to 1 | 0.001 to 1 | 0.001 to 1 | 0.001 to 1
COc1ccc(CN2C(=O)CC(c3ncc(C)o3)=Cc3ccc(-c4cnn(C(C)C(N)=O)c4)cc32)cc1 (stereo not drawn) [Compound 72] | 0.001 to 1 | 0.001 to 1 | 0.001 to 1 | 0.001 to 1
COc1ccc(CN2C(=O)CC(c3ncc(C)o3)=Cc3ccc(-c4cnn(CC(=O)N(C)C)c4)cc32)cc1 [Compound 73, 2-(4-(1-(4-Methoxybenzyl)-4-(5-methyloxazol-2-yl)-2-oxo-2,3-dihydro-1H-benzo[b]azepin-8-yl)-1H-pyrazol-1-yl)-N,N-dimethylacetamide] | 0.001 to 1 | 0.001 to 1 | 0.001 to 1 | 0.001 to 1
CCOC(=O)C(C)n1cc(-c2ccc3c(c2)N(Cc2ccc(OC)cc2)C(=O)CC(c2ncc(C)o2)=C3)cn1 (stereo not drawn) [Compound 74, Ethyl 2-(4-(1-(4-methoxybenzyl)-4-(5-methyloxazol-2-yl)-2-oxo-2,3-dihydro-1H-benzo[b]azepin-8-yl)-1H-pyrazol-1-yl)propanoate] | 0.001 to 1 | 0.001 to 1 | 0.001 to 1 | 0.001 to 1
COc1ccc(CN2C(=O)CC(c3ncc(C)o3)=Cc3ccc(-c4cnn(C(C)C(=O)O)c4)cc32)cc1 (stereo not drawn) [Compound 75, 2-(4-(1-(4-Methoxybenzyl)-4-(5-methyloxazol-2-yl)-2-oxo-2,3-dihydro-1H-benzo[b]azepin-8-yl)-1H-pyrazol-1-yl)propanoic acid] | 1 to 10 | 1 to 10 | 1 to 10 | 1 to 10
COc1ccc(CN2C(=O)CC(c3ncc(C)o3)=Cc3ccc(-c4cnn(C(C)(C)C(N)=O)c4)cc32)cc1 [Compound 76, 2-(4-(1-(4-Methoxybenzyl)-4-(5-methyloxazol-2-yl)-2-oxo-2,3-dihydro-1H-benzo[b]azepin-8-yl)-1H-pyrazol-1-yl)-2-methylpropanamide] | 0.001 to 1 | 0.001 to 1 | 0.001 to 1 | 0.001 to 1
[2H]C([2H])([2H])OCCCn1cc(-c2ccc3c(c2)N(Cc2ccc(OC)cc2)C(=O)CC(c2ncc(C)o2)=C3)cn1 [Compound 77, 8-(1-(3-(Methoxy-d3)propyl)-1H-pyrazol-4-yl)-1-(4-methoxybenzyl)-4-(5-methyloxazol-2-yl)-1,3-dihydro-2H-benzo[b]azepin-2-one] | 0.001 to 1 | 0.001 to 1 | 0.001 to 1 | 0.001 to 1
COCCOCCn1cc(-c2ccc3c(c2)N(Cc2ccc(OC)cc2)C(=O)CC(c2ncc(C)o2)=C3)cn1 [Compound 78, 1-(4-methoxybenzyl)-8-(1-(2-(2-methoxyethoxy)ethyl)-1H-pyrazol-4-yl)-4-(5-methyloxazol-2-yl)-1,3-dihydro-2H-benzo[b]azepin-2-one] | 0.001 to 1 | 0.001 to 1 | 0.001 to 1 | 0.001 to 1
COCCCCn1cc(-c2ccc3c(c2)N(Cc2ccc(OC)cc2)C(=O)CC(c2ncc(C)o2)=C3)cn1 [Compound 79, 1-(4-methoxybenzyl)-8-(1-(4-methoxybutyl)-1H-pyrazol-4-yl)-4-(5-methyloxazol-2-yl)-1,3-dihydro-2H-benzo[b]azepin-2-one] | 0.001 to 1 | 0.001 to 1 | 0.001 to 1 | 0.001 to 1
CCOCCn1cc(-c2ccc3c(c2)N(Cc2ccc(OC)cc2)C(=O)CC(c2ncc(C)o2)=C3)cn1 [Compound 80, 8-(1-(2-ethoxyethyl)-1H-pyrazol-4-yl)-1-(4-methoxybenzyl)-4-(5-methyloxazol-2-yl)-1,3-dihydro-2H-benzo[b]azepin-2-one] | 0.001 to 1 | 0.001 to 1 | 0.001 to 1 | 0.001 to 1
COc1ccc(CN2C(=O)CC(c3ncc(C)o3)=Cc3ccc(-c4cnn(C(C)=O)c4)cc32)cc1 [Compound 81, 8-(1-Acetyl-1H-pyrazol-4-yl)-1-(4-methoxybenzyl)-4-(5-methyloxazol-2-yl)-1,3-dihydro-2H-benzo[b]azepin-2-one] | 0.001 to 1 | 0.001 to 1 | 0.001 to 1 | 0.001 to 1
COc1ccc(CN2C(=O)CC(c3ncc(C)o3)=Cc3ccc(-c4cnn(C(C)C(C)O)c4)cc32)cc1 (stereo not drawn) [Compound 83, 8-(1-(3-Hydroxybutan-2-yl)-1H-pyrazol-4-yl)-1-(4-methoxybenzyl)-4-(5-methyloxazol-2-yl)-1,3-dihydro-2H-benzo[b]azepin-2-one] | 0.001 to 1 | 0.001 to 1 | 0.001 to 1 | 0.001 to 1
CCS(=O)(=O)N1CC(CC#N)(n2cc(-c3ccc4c(c3)N(Cc3ccc(OC)cc3)C(=O)CC(c3ncc(C)o3)=C4)cn2)C1 [Compound 84, 2-(1-(Ethylsulfonyl)-3-(4-(1-(4-methoxybenzyl)-4-(5-methyloxazol-2-yl)-2-oxo-2,3-dihydro-1H-benzo[b]azepin-8-yl)-1H-pyrazol-1-yl)azetidin-3-yl)acetonitrile] | 0.001 to 1 | 0.001 to 1 | 0.001 to 1 | 0.001 to 1
COc1ccc(CN2C(=O)CC(c3ncc(C)o3)=Cc3ccc(-c4cnn(C5(CC#N)CNC5)c4)cc32)cc1 [Compound 85, 2-(3-(4-(1-(4-Methoxybenzyl)-4-(5-methyloxazol-2-yl)-2-oxo-2,3-dihydro-1H-benzo[b]azepin-8-yl)-1H-pyrazol-1-yl)azetidin-3-yl)acetonitrile] | 0.001 to 1 | 0.001 to 1 | 0.001 to 1 | 0.001 to 1
COc1ccc(CN2C(=O)CC(c3ncc(C)o3)=Cc3ccc(-c4cnn(C(C)(C)C#N)c4)cc32)cc1 [Compound 86, 2-(4-(1-(4-Methoxybenzyl)-4-(5-methyloxazol-2-yl)-2-oxo-2,3-dihydro-1H-benzo[b]azepin-8-yl)-1H-pyrazol-1-yl)-2-methylpropanenitrile] | 0.001 to 1 | 0.001 to 1 | 0.001 to 1 | 0.001 to 1
COc1ccc(CN2C(=O)CC(c3ncc(C)o3)=Cc3ccc(-c4cnn(C5(CC#N)CN(S(C)(=O)=O)C5)c4)cc32)cc1 [Compound 87, 2-(3-(4-(1-(4-Methoxybenzyl)-4-(5-methyloxazol-2-yl)-2-oxo-2,3-dihydro-1H-benzo[b]azepin-8-yl)-1H-pyrazol-1-yl)-1-(methylsulfonyl)azetidin-3-yl)acetonitrile] | 0.001 to 1 | 0.001 to 1 | 0.001 to 1 | 0.001 to 1
COc1ccc(CN2C(=O)CC(c3ncc(C)o3)=Cc3ccc(-c4cnn(C5(CC#N)COC5)c4)cc32)cc1 [Compound 88, 2-(3-(4-(1-(4-Methoxybenzyl)-4-(5-methyloxazol-2-yl)-2-oxo-2,3-dihydro-1H-benzo[b]azepin-8-yl)-1H-pyrazol-1-yl)oxetan-3-yl)acetonitrile] | 0.001 to 1 | 0.001 to 1 | 0.001 to 1 | 0.001 to 1
COc1ccc(CN2C(=O)CC(c3ncc(C)o3)=Cc3ccc(-c4cnn(C5(CC#N)CN(S(=O)(=O)C6CC6)C5)c4)cc32)cc1 [Compound 89, 2-(1-(Cyclopropylsulfonyl)-3-(4-(1-(4-methoxybenzyl)-4-(5-methyloxazol-2-yl)-2-oxo-2,3-dihydro-1H-benzo[b]azepin-8-yl)-1H-pyrazol-1-yl)azetidin-3-yl)acetonitrile] | 0.001 to 1 | 0.001 to 1 | 0.001 to 1 | 0.001 to 1
